In general, Ki refers to a dissociation constant, usually derived from enzyme kinetics or from competition with a known ligand.

A short description of this assay: The compound was tested for binding affinity against Tachykinin receptor 1 from rabbit cortex.

For the compound `O=C1OC2(CCN(CCc3c[nH]c4ccc(F)cc34)CC2)CN1Cc1ccccc1`, the Ki came to 7.94 µM.
